Assay results published in US12234211B2, “Cycloolefin substituted heteroaromatic compounds and their use” (HUTCHISON MEDIPHARMA LIMITED, priority 2017, dated 2025).

Molecular target: T1, IDH2-R140Q (Homo sapiens, UniProt P48735, R140Q)
T1 construct: expressed in transfected cells
T1 sequence (P48735 40-452 R140Q): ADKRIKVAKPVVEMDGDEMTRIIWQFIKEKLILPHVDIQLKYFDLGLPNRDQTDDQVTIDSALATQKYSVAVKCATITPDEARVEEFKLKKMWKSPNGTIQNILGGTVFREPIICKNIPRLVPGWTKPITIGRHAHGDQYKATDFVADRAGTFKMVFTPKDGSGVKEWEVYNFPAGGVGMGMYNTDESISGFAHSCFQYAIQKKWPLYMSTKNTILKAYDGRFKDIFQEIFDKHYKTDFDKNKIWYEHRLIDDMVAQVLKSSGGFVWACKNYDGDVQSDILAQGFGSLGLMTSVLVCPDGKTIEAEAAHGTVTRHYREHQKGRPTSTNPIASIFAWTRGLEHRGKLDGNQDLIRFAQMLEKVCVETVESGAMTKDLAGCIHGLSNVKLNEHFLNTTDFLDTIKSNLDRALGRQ
Test: Fluorescent determination of IDH2-R140Q cell activity (2-HG in U87MGR140Q cells)
Format: cell-based
Details: 72 hours incubation, read-out: IC50 (2-HG inhibition)
Protocol: Enzyme reaction solution: 1 mM nicotinamide adenine dinucleotide (NAD), 0.6 ng/μL D-2-hydroxyglutarate dehydrogenase (D2HGDH), 0.8 U/mL lipoamidase dehydrogenase (Diaphorase) and 60 μM Resazurin in 40 mM Tris.HCl pH 8.8 assay buffer.
Standard curve stock solution: The standard of 2-HG sodium salt was serially diluted in serum-free MEM medium to make a standard curve stock solution.
100 μL of U87MGR140Q cells were seeded at a density of 6×10^4/mL per well in a 96-well plate a.
From each well of 96-well plate a, 50 μL of the culture supernatant was transferred to the corresponding well of 96-well plate b; at the same time, 50 μL of standard curve stocking solution was added to other wells of 96-well plate b. Then 10 μl of 360 mM hydrochloric acid was added to all the wells. After shaking and mixing, the plate was placed on ice for 10 minutes, and then 10 μl of 420 mM Tris-base was added. After shaking and mixing, the plate was placed on ice for additional 5 minutes. Then the plate was centrifuged at 2500 rpm for 10 minutes.
After centrifuging, from each well of 96-well plate b, 20 μL of the supernatant was transferred to 96-well plate c. An additional 80 μL of the enzyme reaction solution was added to each well and incubated at 25° C. for 90 minutes.
A standard curve of the fluorescence value vs. the corresponding 2-HG concentration was made, and the 2-HG concentration corresponding to each concentration point of the compound was calculated, then the inhibition ratio was calculated, and the data was analyzed using XLfit5 (ID Business Solutions Limited) software to obtain the IC50 value.
The inhibition ratio was calculated as follows: Inhibition Ratio (IH %)=(1-2-HG concentration of test compound treated cells/2-HG concentration of control cells)×100%.

| IC50 [nM] | Compound |
| --- | --- |
| 228 | [2H]C1(O)CCCC(c2nc(N[C@@H](C)C(F)(F)F)nc(NC([2H])(C([2H])([2H])[2H])C([2H])([2H])[2H])n2)=C1F (mixture of isomers) [Compound 30] |
| 181 | CC(C)Nc1nc(N[C@H](C)C(F)(F)F)nc(C2=CC(F)CCC2)n1 (mixture of isomers) [Compound 36] |
| 657 | C[C@@H](Nc1nc(NC2(C)CC2)nc(C2=CC(O)CCC2)n1)C(F)(F)F (mixture of isomers) [Compound 156] |
| 180 | C[C@@H](Nc1nc(NC2CC3(C2)CC(F)(F)C3)nc(C2=C(F)C(O)CCC2)n1)C(F)(F)F (mixture of isomers) [Compound 160] |
| 176 | CC[C@@H](C)Nc1nc(N[C@H](C)C(F)(F)F)nc(C2=C(F)C(O)CCC2)n1 (mixture of isomers) [Compound 164] |
| 198 | CC[C@H](C)Nc1nc(N[C@H](C)C(F)(F)F)nc(C2=C(F)C(O)CCC2)n1 (mixture of isomers) [Compound 165] |
| 344 | C[C@@H](Nc1nc(NOC(C)(C)C)nc(C2=C(F)C(O)CCC2)n1)C(F)(F)F (mixture of isomers) [Compound 172] |
| 93 | CCCNc1nc(N[C@H](C)C(F)(F)F)nc(C2=C(F)C(O)C(F)(F)CC2)n1 (mixture of isomers) [Compound 248] |
| 199 | CC(C)CNc1nc(N[C@H](C)C(F)(F)F)nc(C2=C(F)C(O)CCC2)n1 (mixture of isomers) [Compound 12] |
| 326 | C[C@@H](Nc1nc(N[C@@H]2C[C@@H]2F)nc(C2=C(F)C(O)CCC2)n1)C(F)(F)F (mixture of isomers) [Compound 16] |
| 1620 | CC(C)Nc1nc(N[C@H](C)C(F)(F)F)nc(C2=C(Cl)C(O)CCC2)n1 (mixture of isomers) [Compound 17] |
| 152 | C[C@@H](Nc1nc(NC2CC23CC3)nc(C2=C(F)C(O)CCC2)n1)C(F)(F)F (mixture of isomers) [Compound 42] |
| 171 | C[C@@H](Nc1nc(NC2CC2)nc(C2=CC(O)CCC2)n1)C(F)(F)F (mixture of isomers) [Compound 129] |
| 2800 | C[C@@H](Nc1nc(NCC(C)(C)O)nc(C2=CC(O)CCC2)n1)C(F)(F)F (mixture of isomers) [Compound 131] |
| 174 | CCCNc1nc(N[C@H](C)C(F)(F)F)nc(C2=CC(O)CCC2)n1 (mixture of isomers) [Compound 133] |
| 336 | CCNc1nc(N[C@H](C)C(F)(F)F)nc(C2=CC(O)CCC2)n1 (mixture of isomers) [Compound 135] |
| 2390 | COC1C=C(c2nc(N[C@H](C)C(F)(F)F)nc(N[C@H](C)C(F)(F)F)n2)CCC1 (mixture of isomers) [Compound 140, 6-(3-Methoxycyclohex-1-en-1-yl)-N^2,N^4-bis((R)-1,1,1-trifluoropropan-2-yl)-1,3,5-triazine-2,4-diamine] |
| 3780 | CC(CO)Nc1nc(N[C@H](C)C(F)(F)F)nc(C2=CC(O)CCC2)n1 (mixture of isomers) [Compound 184] |
| 336 | [2H]C1(O)CCCCC(c2nc(NC3CC(F)(F)C3)nc(NC3CC(F)(F)C3)n2)=C1F (stereo not shown) [Compound 22] |
| 665 | CC(C)Nc1nc(NC(C)C)nc(C2=C(F)C(O)CCC2)n1 (stereo not shown) [Compound 25] |
| 148 | OC1CCCC(c2nc(NC3CC3)nc(NC3CC(F)(F)C3)n2)=C1F (stereo not shown) [Compound 27] |
| 3150 | C[C@@H](Nc1nc(Nc2ccn3ccnc3c2)nc(C2=C(F)C(O)CCC2)n1)C(F)(F)F (stereo partly shown) [Compound 44] |
| 72 | CC1CC1Nc1nc(NC2CC(F)(F)C2)nc(C2=C(F)C(O)CCC2)n1 (stereo not shown) [Compound 50] |
| 131 | [2H]C([2H])([2H])C([2H])(Nc1nc(N[C@@H](C)C(F)(F)F)nc(C2=C(F)C(O)CCC2)n1)C([2H])([2H])[2H] (stereo partly shown) [Compound 53] |
| 93 | [2H]C1([2H])CCC(c2nc(NC(C)C)nc(NC3CC(F)(F)C3)n2)=C(F)C1O (stereo not shown) [Compound 56] |
| 2180 | CC(C)Nc1nc(Nc2cnn(C)c2)nc(C2=C(F)C(O)CCC2)n1 (stereo not shown) [Compound 57] |
| 221 | CC(C)Nc1nc(Nc2ccn3nccc3c2)nc(C2=C(F)C(O)CCC2)n1 (stereo not shown) [Compound 59] |
| 112 | CC(C)(O)CNc1nc(Nc2ccnc(C(F)(F)F)c2)nc(C2=C(F)C(O)CCC2)n1 (stereo not shown) [Compound 70] |
| 1340 | CC(C)Nc1nc(N[C@H](C)C(F)(F)F)nc(C2=CC(=O)CCC2)n1 [Compound 122, (R)-3-(4-(isopropylamino)-6-((1,1,1-trifluoropropan-2-yl)amino)-1,3,5-triazin-2-yl)cyclohex-2-en-1-one] |
| 504 | CC(C)Nc1nc(N[C@H](C)C(F)(F)F)nc(C2=CC(F)(F)CCC2)n1 [Compound 138, (R)-6-(3,3-difluorocyclohex-1-en-1-yl)-N^2-isopropyl-N^4-(1,1,1-trifluoropropan-2-yl)-1,3,5-triazine-2,4-diamine] |

Continued, molecule first:

| Compound | IC50 [nM] |
| --- | --- |
| [2H]C1(O)CCCC(c2nc(NC(C)C)nc(N[C@H](C)C(F)(F)F)n2)=C1F (mixture of isomers) [Compound 23] | 192 |
| [2H]C1(O)CCCC(c2nc(N[C@H](C)C(F)(F)F)nc(NC([2H])(C([2H])([2H])[2H])C([2H])([2H])[2H])n2)=C1F (mixture of isomers) [Compound 29] | 177 |
| CC(C)Nc1nc(N[C@H](C)C(F)(F)F)nc(C2=CCCC(F)C2)n1 (mixture of isomers) [Compound 37] | 1910 |
| CC(C)Nc1nc(N[C@H](C)C(F)(F)F)nc(C2=CCC(F)CC2)n1 (mixture of isomers) [Compound 38] | 1620 |
| [2H]C1([2H])CCC(c2nc(NC3CC(F)(F)C3)nc(N[C@@H](C)C(F)(F)F)n2)=C(F)C1([2H])O (mixture of isomers) [Compound 90] | 65 |
| CC(C)Nc1nc(N[C@H](C)C(F)(F)F)nc(C2=CCCC(O)C2)n1 (mixture of isomers) [Compound 144, 3-(4-(Isopropylamino)-6-(((R)-1,1,1-trifluoropropan-2-yl)amino)-1,3,5-triazin-2-yl)cyclohex-3-en-1-ol] | 2750 |
| C[C@@H](Nc1nc(NCC(F)(F)F)nc(C2=CC(O)CCC2)n1)C(F)(F)F (mixture of isomers) [Compound 154] | 202 |
| C[C@@H](Nc1nc(NC2CC2)nc(C2=C(F)C(O)CCC2)n1)C(F)(F)F (mixture of isomers) [Compound 162] | 177 |
| C[C@@H](Nc1nc(NCC(F)(F)F)nc(C2=C(F)C(O)C(F)(F)CC2)n1)C(F)(F)F (mixture of isomers) [Compound 208] | 102 |
| C[C@@H](Nc1nc(NC2CCCC2)nc(C2=C(F)C(O)CCC2)n1)C(F)(F)F (mixture of isomers) [Compound 10] | 113 |
| CC(C)Nc1nc(N[C@H](C)C(F)(F)F)nc(C2=C(F)C(F)CCC2)n1 (mixture of isomers) [Compound 35, 6-(2,3-Difluorocyclohex-1-en-1-yl)-N^2-isopropyl-N^4-((R)-1,1,1-trifluoropropan-2-yl)-1,3,5-triazine-2,4-diamine] | 591 |
| [2H]C1([2H])CCC(c2nc(NC(C)C)nc(NC3CC(F)(F)C3)n2)=C(F)C1([2H])O (racemic) [Compound 92] | 143 |
| CC(C)C(=O)Nc1nc(N[C@H](C)C(F)(F)F)nc(C2=CC(O)CCC2)n1 (mixture of isomers) [Compound 137] | 1540 |
| C[C@@H](Nc1nc(NC2CCC(F)(F)C2)nc(C2=CC(O)CCC2)n1)C(F)(F)F (mixture of isomers) [Compound 176] | 612 |
| CC(C)Nc1nc(NC2CC(F)(F)C2)nc(C2=C(F)C(O)CCC2)n1 (stereo not shown) [Compound 28] | 123 |
| C[C@H](CF)Nc1nc(NC2CC(F)(F)C2)nc(C2=C(F)C(O)CCC2)n1 (stereo partly shown) [Compound 43] | 328 |
| OC1CCCC(c2nc(NC3CC3)nc(NC3CC(F)(F)C3)n2)=C1F (stereo not shown) [Compound 49] | 210 |
| [2H]C([2H])([2H])C([2H])(Nc1nc(NC2CC(F)(F)C2)nc(C2=C(F)C(O)CCC2)n1)C([2H])([2H])[2H] (stereo not shown) [Compound 55] | 103 |
| [2H]C([2H])([2H])Nc1nc(Nc2ccnc(C(F)(F)F)c2)nc(C2=C(F)C(O)CCC2)n1 (stereo not shown) [Compound 58] | 169 |
| C[C@H](Nc1nc(N[C@@H](C)C(F)(F)F)nc(C2=C(F)C(O)CCC2)n1)C(F)(F)F (stereo partly shown) [Compound 69] | 173 |
| OC1CCCC(c2nc(Nc3ccc(F)cc3)nc(Nc3ccnc(C(F)(F)F)c3)n2)=C1F (stereo not shown) [Compound 72] | 42 |
| [2H]C1([2H])CCC(c2nc(Nc3ccnc(C(F)(F)F)c3)nc(NC([2H])(C([2H])([2H])[2H])C([2H])([2H])[2H])n2)=C(F)C1O (stereo not shown) [Compound 86] | 21 |
